How the values were obtained:
human TRPV1 [1] = biological target: T1, human TRPV1 (Homo sapiens (Human), UniProt Q8NER1); assay: Acid Activation Assay (pH 5.0, intracellular Ca2+, FLIPR); type: cell-based; details: percentage of the maximal pH 5.0-induced response remaining; recombinant HEK293 hTRPV1 cells; maximum concentration tested 37.5 μM
Summary of the method: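 Readout: peak [Ca2+]i fluorescence over baseline on FLIPR, expressed as percentage remaining of the maximal pH 5.0-evoked signal. Stable hTRPV1-HEK293 cells with Calcium-4 dye received compound (12 half-log concentrations, maximum 37.5 μM) 3 min before acidic pH 5.0 buffer.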

human TRPV1 [2] = biological target: T1, human TRPV1; assay: Capsaicin Activation Assay (intracellular Ca2+, FLIPR); type: cell-based; details: recombinant HEK293 cells expressing hTRPV1, 50 nM capsaicin
Summary of the method: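 Ca2+ fluorescence was recorded by FLIPR every 1 to 5 seconds in HEK293 cells, clonally selected for stable human TRPV1 expression and plated one day ahead. Test compounds came as serial dilutions of 10 mM DMSO stocks.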

T1 sequence (Q8NER1 whole entry): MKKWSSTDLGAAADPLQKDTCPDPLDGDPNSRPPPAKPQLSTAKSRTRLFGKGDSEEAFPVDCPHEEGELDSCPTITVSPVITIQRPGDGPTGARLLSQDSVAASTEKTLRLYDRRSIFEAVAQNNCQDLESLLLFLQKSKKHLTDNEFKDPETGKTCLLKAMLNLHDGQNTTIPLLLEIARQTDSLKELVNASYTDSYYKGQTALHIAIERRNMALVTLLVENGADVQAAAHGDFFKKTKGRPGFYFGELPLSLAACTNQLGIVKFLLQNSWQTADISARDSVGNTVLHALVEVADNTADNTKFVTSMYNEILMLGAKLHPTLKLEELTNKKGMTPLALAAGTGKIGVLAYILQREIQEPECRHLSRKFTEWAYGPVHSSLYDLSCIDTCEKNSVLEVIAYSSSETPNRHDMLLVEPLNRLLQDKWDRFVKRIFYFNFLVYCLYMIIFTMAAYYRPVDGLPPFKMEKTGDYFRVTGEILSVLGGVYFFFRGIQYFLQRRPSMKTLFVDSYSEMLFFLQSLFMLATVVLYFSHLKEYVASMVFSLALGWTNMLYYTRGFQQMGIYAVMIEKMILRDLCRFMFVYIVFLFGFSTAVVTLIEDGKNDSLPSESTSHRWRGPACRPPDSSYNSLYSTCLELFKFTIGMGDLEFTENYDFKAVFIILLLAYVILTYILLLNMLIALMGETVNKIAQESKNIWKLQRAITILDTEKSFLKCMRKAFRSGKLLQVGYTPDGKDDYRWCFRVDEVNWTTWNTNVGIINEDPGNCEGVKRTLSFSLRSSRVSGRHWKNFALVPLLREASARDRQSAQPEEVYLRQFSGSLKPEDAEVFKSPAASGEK

Structure (SMILES) | human TRPV1 H^+ (max % remain) (human TRPV1 [1]) [%] | IC50 (human TRPV1 [2]) [µM]
C[C@H]1Oc2c(NC(=O)N[C@@H]3CC(CF)(CF)Oc4cc(Cl)ccc43)cccc2NC1=O [Example 134, 1-[(4R)-7-chloro-2,2-bis(fluoromethyl)-3,4-dihydro-2H-chromen-4-yl]-3-[(2R)-2-methyl-3-oxo-3,4-dihydro-2H-1,4-benzoxazin-8-yl]urea] | 0 | 0.008
CN1C(=O)NCc2c(NC(=O)N[C@@H]3CC(C)(C)Oc4c(F)cccc43)cccc21 [Example 135, 1-[(4R)-8-fluoro-2,2-dimethyl-3,4-dihydro-2H-chromen-4-yl]-3-(1-methyl-2-oxo-1,2,3,4-tetrahydroquinazolin-5-yl)urea] | 32 | 0.031
CN1C(=O)NCc2c(NC(=O)N[C@@H]3CC(C)(C(F)F)Oc4cc(Cl)ccc43)cccc21 (stereo partly drawn) [Example 136, 1-[(4R)-7-chloro-2-(difluoromethyl)-2-methyl-3,4-dihydro-2H-chromen-4-yl]-3-(1-methyl-2-oxo-1,2,3,4-tetrahydroquinazolin-5-yl)urea] | 26 | 0.023
CN1C(=O)NCc2c(NC(=O)N[C@@H]3CC(C)(C)Oc4cc(OC(F)(F)F)ccc43)cccc21 [Example 137, 1-[(4R)-2,2-dimethyl-7-(trifluoromethoxy)-3,4-dihydro-2H-chromen-4-yl]-3-(1-methyl-2-oxo-1,2,3,4-tetrahydroquinazolin-5-yl)urea] | 17 | 0.038
CCC1(CC)C[C@@H](NC(=O)Nc2cccc3c2CNC(=O)N3C)c2cccc(F)c2O1 [Example 139, 1-[(4R)-2,2-diethyl-8-fluoro-3,4-dihydro-2H-chromen-4-yl]-3-(1-methyl-2-oxo-1,2,3,4-tetrahydroquinazolin-5-yl)urea] | 27 | 0.012
CCC1(CC)C[C@@H](NC(=O)Nc2cccc3c2CNC(=O)N3C)c2ccccc2O1 [Example 140, 1-[(4R)-2,2-diethyl-3,4-dihydro-2H-chromen-4-yl]-3-(1-methyl-2-oxo-1,2,3,4-tetrahydroquinazolin-5-yl)urea] | 27 | 0.011
CN1C(=O)NCc2c(NC(=O)N[C@@H]3CCc4cc(C(C)(C)C)ccc43)cccc21 [Example 141, 1-[(1R)-5-tert-butyl-2,3-dihydro-1H-inden-1-yl]-3-(1-methyl-2-oxo-1,2,3,4-tetrahydroquinazolin-5-yl)urea] | 8 | 0.028
CN1C(=O)NCc2c(NC(=O)N[C@@H]3CCOc4c3cccc4C(C)(C)C)cccc21 [Example 142, 1-[(4R)-8-tert-butyl-3,4-dihydro-2H-chromen-4-yl]-3-(1-methyl-2-oxo-1,2,3,4-tetrahydroquinazolin-5-yl)urea] | 18 | 0.11
CCC1(CC)C[C@@H](NC(=O)Nc2cccc3c2CNC(=O)N3C)c2ccc(C(F)(F)F)cc2O1 [Example 144, 1-[(4R)-2,2-diethyl-7-(trifluoromethyl)-3,4-dihydro-2H-chromen-4-yl]-3-(1-methyl-2-oxo-1,2,3,4-tetrahydroquinazolin-5-yl)urea] | 5 | 0.13
CN1C(=O)NCc2c(NC(=O)N[C@@H]3CC(CF)(CF)Oc4cc(C(F)(F)F)ccc43)cccc21 [Example 146, 1-[(4R)-2,2-bis(fluoromethyl)-7-(trifluoromethyl)-3,4-dihydro-2H-chromen-4-yl]-3-(1-methyl-2-oxo-1,2,3,4-tetrahydroquinazolin-5-yl)urea] | 15 | 0.038
CCC1(CC)C[C@@H](NC(=O)Nc2cccc3c2CNC(=O)N3C)c2ccc(Cl)c(Cl)c2O1 [Example 147, 1-[(4R)-7,8-dichloro-2,2-diethyl-3,4-dihydro-2H-chromen-4-yl]-3-(1-methyl-2-oxo-1,2,3,4-tetrahydroquinazolin-5-yl)urea] | 15 | 0.6
CN1C(=O)NCc2c(NC(=O)N[C@@H]3CC(CF)(CF)Oc4c(Cl)cccc43)cccc21 [Example 148, 1-[(4R)-8-chloro-2,2-bis(fluoromethyl)-3,4-dihydro-2H-chromen-4-yl]-3-(1-methyl-2-oxo-1,2,3,4-tetrahydroquinazolin-5-yl)urea] | 33 | 0.1
CN1C(=O)NCc2c(NC(=O)N[C@@H]3CC(CF)(CF)Oc4cc(OC(F)(F)F)ccc43)cccc21 [Example 149, 1-[(4R)-2,2-bis(fluoromethyl)-7-(trifluoromethoxy)-3,4-dihydro-2H-chromen-4-yl]-3-(1-methyl-2-oxo-1,2,3,4-tetrahydroquinazolin-5-yl)urea] | 16 | 0.12
CN1C(=O)NCc2c(NC(=O)N[C@@H]3CC(C)(C)Oc4cc(C(F)(F)F)ccc43)cccc21 [Example 150, 1-[(4R)-2,2-dimethyl-7-(trifluoromethyl)-3,4-dihydro-2H-chromen-4-yl]-3-(1-methyl-2-oxo-1,2,3,4-tetrahydroquinazolin-5-yl)urea] | 20 | 0.016
CCCC1(CCC)C[C@@H](NC(=O)Nc2cccc3c2CNC(=O)N3C)c2cc(F)ccc2O1 [Example 151, 1-[(4R)-6-fluoro-2,2-dipropyl-3,4-dihydro-2H-chromen-4-yl]-3-(1-methyl-2-oxo-1,2,3,4-tetrahydroquinazolin-5-yl)urea] | 53 | 0.17
CN1C(=O)NCc2c(NC(=O)N[C@@H]3CC(CF)(CF)Oc4ccc(F)cc43)cccc21 [Example 152, 1-[(4R)-6-fluoro-2,2-bis(fluoromethyl)-3,4-dihydro-2H-chromen-4-yl]-3-(1-methyl-2-oxo-1,2,3,4-tetrahydroquinazolin-5-yl)urea] | 22 | 0.47
CN1C(=O)NCc2c(NC(=O)N[C@@H]3CC(CF)(CF)Oc4c(F)cc(F)cc43)cccc21 [Example 153, 1-[(4R)-6,8-difluoro-2,2-bis(fluoromethyl)-3,4-dihydro-2H-chromen-4-yl]-3-(1-methyl-2-oxo-1,2,3,4-tetrahydroquinazolin-5-yl)urea] | 23 | 0.17
CN1C(=O)NCc2c(NC(=O)N[C@@H]3CC4(CCC4)Oc4ccc(F)cc43)cccc21 [Example 154, 1-[(4R)-6-fluoro-3,4-dihydrospiro[chromene-2,1′-cyclobutan]-4-yl]-3-(1-methyl-2-oxo-1,2,3,4-tetrahydroquinazolin-5-yl)urea] | 20 | 0.015
CCC1(CC)C[C@@H](NC(=O)Nc2cccc3c2CNC(=O)N3C)c2cc(F)ccc2O1 [Example 155, 1-[(4R)-2,2-diethyl-6-fluoro-3,4-dihydro-2H-chromen-4-yl]-3-(1-methyl-2-oxo-1,2,3,4-tetrahydroquinazolin-5-yl)urea] | 20 | 0.016
CCCC1(CCC)C[C@@H](NC(=O)Nc2cccc3c2CNC(=O)N3C)c2cccc(F)c2O1 [Example 156, 1-[(4R)-8-fluoro-2,2-dipropyl-3,4-dihydro-2H-chromen-4-yl]-3-(1-methyl-2-oxo-1,2,3,4-tetrahydroquinazolin-5-yl)urea] | 67 | 0.19
CN1C(=O)NCc2c(NC(=O)N[C@@H]3CC(C)(C)Oc4ccc(F)cc43)cccc21 [Example 157, 1-[(4R)-6-fluoro-2,2-dimethyl-3,4-dihydro-2H-chromen-4-yl]-3-(1-methyl-2-oxo-1,2,3,4-tetrahydroquinazolin-5-yl)urea] | 36 | 0.047
CN1C(=O)NCc2c(NC(=O)N[C@@H]3CCOc4cc(F)ccc43)cccc21 [Example 159, 1-[(4R)-7-fluoro-3,4-dihydro-2H-chromen-4-yl]-3-(1-methyl-2-oxo-1,2,3,4-tetrahydroquinazolin-5-yl)urea] | 21 | 0.6
CN1C(=O)NCc2c(NC(=O)N[C@@H]3CCOc4cc(C(F)(F)F)ccc43)cccc21 [Example 160, 1-(1-methyl-2-oxo-1,2,3,4-tetrahydroquinazolin-5-yl)-3-[(4R)-7-(trifluoromethyl)-3,4-dihydro-2H-chromen-4-yl]urea] | 23 | 0.042
CN1C(=O)NCc2c(NC(=O)NC3COc4cc(Cl)ccc4C3)cccc21 (stereo not drawn) [Example 161, 1-(7-chloro-3,4-dihydro-2H-chromen-3-yl)-3-(1-methyl-2-oxo-1,2,3,4-tetrahydroquinazolin-5-yl)urea] | 9 | 0.095
CCN1C(=O)NCc2c(NC(=O)N[C@@H]3CC(CF)(CF)Oc4cc(Cl)ccc43)cccc21 [Example 162, 1-[(4R)-7-chloro-2,2-bis(fluoromethyl)-3,4-dihydro-2H-chromen-4-yl]-3-(1-ethyl-2-oxo-1,2,3,4-tetrahydroquinazolin-5-yl)urea] | 0 | 0.13
CN1C(=O)NCc2c(NC(=O)N[C@@H]3C[C@](C)(CF)Oc4ccccc43)cccc21 [Example 163, 1-[(2R,4R)-2-(fluoromethyl)-2-methyl-3,4-dihydro-2H-chromen-4-yl]-3-(1-methyl-2-oxo-1,2,3,4-tetrahydroquinazolin-5-yl)urea] | 33 | 0.22
CN1C(=O)NCc2c(NC(=O)N[C@@H]3C[C@@](C)(CF)Oc4ccccc43)cccc21 [Example 164, 1-[(2S,4R)-2-(fluoromethyl)-2-methyl-3,4-dihydro-2H-chromen-4-yl]-3-(1-methyl-2-oxo-1,2,3,4-tetrahydroquinazolin-5-yl)urea] | 35 | 0.12
